Experimental data as given in patent US10266526B2, “Substituted 1,2,3-triazoles as SMYD inhibitors for treating cancer” (EPIZYME, INC., priority 2014, dated 2019).

Biological target: SMYD3 (Homo sapiens (Human), UniProt Q9H7B4)
Assay: SMYD3 biochemical assay (SMYD3 enzyme assay on MEKK2 protein substrate, 3H-SAM scintillation proximity assay)
Settings: read-out: SMYD3 Biochem IC50
Method in brief: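 Native full-length human SMYD3, expressed in E. coli, was preincubated with compound for 30 min at room temperature in 25 mM Tris-Cl pH 8.0, 1 mM TCEP, 0.005% BSG and 0.005% Tween 20. ³H-SAM plus GST-MEKK2 then started the reaction. It was stopped with unlabeled SAM (100 uM final), and methylated MEKK2 was read by SPA.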

Sequence of SMYD3 (Q9H7B4 whole entry): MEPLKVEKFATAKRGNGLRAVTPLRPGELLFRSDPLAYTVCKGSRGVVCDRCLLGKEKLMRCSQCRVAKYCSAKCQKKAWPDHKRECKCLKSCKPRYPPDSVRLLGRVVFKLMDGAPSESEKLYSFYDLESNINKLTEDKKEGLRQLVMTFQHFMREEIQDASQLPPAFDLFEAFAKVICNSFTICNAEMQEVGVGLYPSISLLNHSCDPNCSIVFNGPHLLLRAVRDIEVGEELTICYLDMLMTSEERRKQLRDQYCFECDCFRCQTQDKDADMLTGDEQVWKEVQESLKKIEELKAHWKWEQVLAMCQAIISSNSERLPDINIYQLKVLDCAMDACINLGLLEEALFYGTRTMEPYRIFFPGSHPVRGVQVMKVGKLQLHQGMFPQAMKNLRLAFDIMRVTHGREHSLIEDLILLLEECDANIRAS

IC50 | Compound
> 100 µM | N[C@H]1CC[C@H](NC(=O)c2nccc3ccccc23)CC1 [compound 197, N-((1r,4r)-4-aminocyclohexyl)isoquinoline-1-carboxamide]
41.7 µM | CC(NC(=O)c1cc2cc(F)ccc2[nH]1)C1CCN(C(=O)[C@H](C)N)CC1 (stereo partly drawn) [compound 198, N-(1-(1-(L-alanyl)piperidin-4-yl)ethyl)-5-fluoro-1H-indole-2-carboxamide]
> 100 µM | CC(NC(=O)c1cc(O)nc2ccccc12)C1CCN(C(=O)[C@H](C)N)CC1 (stereo partly drawn) [compound 199, N-(1-(1-(L-alanyl)piperidin-4-yl)ethyl)-2-hydroxyquinoline-4-carboxamide]
23.3 µM | NCCC(=O)N[C@H]1CC[C@H](NC(=O)c2cc(O)nc3ccccc23)CC1 [compound 200, N-((1r,4r)-4-(3-aminopropanamido)cyclohexyl)-2-hydroxyquinoline-4-carboxamide]
> 100 µM | N[C@H]1CC[C@H](NC(=O)c2cc(O)nc3ccccc23)CC1 [compound 201, N-((1r,4r)-4-aminocyclohexyl)-2-hydroxyquinoline-4-carboxamide]
59 µM | CC(NC(=O)c1ccc2c(c1)CCCC2)C1CCN(C(=O)[C@H](C)N)CC1 (stereo partly drawn) [compound 202, N-(1-(1-(L-alanyl)piperidin-4-yl)ethyl)-5,6,7,8-tetrahydronaphthalene-2-carboxamide]
11.2 µM | NCCC(=O)N[C@H]1CC[C@H](NC(=O)c2ccc3c(c2)CCCC3)CC1 [compound 203, N-((1r,4r)-4-(3-aminopropanamido)cyclohexyl)-5,6,7,8-tetrahydronaphthalene-2-carboxamide]
47.4 µM | N[C@H]1CC[C@H](NC(=O)c2ccc3c(c2)CCCC3)CC1 [compound 204, N-((1r,4r)-4-aminocyclohexyl)-5,6,7,8-tetrahydronaphthalene-2-carboxamide]
> 100 µM | CC(NC(=O)c1cnccn1)C1CCN(C(=O)[C@H](C)N)CC1 (stereo partly drawn) [compound 205, N-(1-(1-(L-alanyl)piperidin-4-yl)ethyl)pyrazine-2-carboxamide]
> 100 µM | CC(NC(=O)Cc1ccc(F)cc1)C1CCN(C(=O)[C@H](C)N)CC1 (stereo partly drawn) [compound 206, N-(1-(1-(L-alanyl)piperidin-4-yl)ethyl)-2-(4-fluorophenyl)acetamide]
> 100 µM | NCCC(=O)N[C@H]1CC[C@H](NC(=O)Cc2ccc(F)cc2)CC1 [compound 207, 3-amino-N-((1r,4r)-4-(2-(4-fluorophenyl)acetamido)cyclohexyl)propanamide]
> 100 µM | N[C@H]1CC[C@H](NC(=O)Cc2ccc(F)cc2)CC1 [compound 208, N-((1r,4r)-4-aminocyclohexyl)-2-(4-fluorophenyl)acetamide]
> 100 µM | CC(NC(=O)c1cc[n+]([O-])cc1)C1CCN(C(=O)[C@H](C)N)CC1 (stereo partly drawn) [compound 209, 4-((1-(1-(L-alanyl)piperidin-4-yl)ethyl)carbamoyl)pyridine 1-oxide]
43.7 µM | Nc1ccnc2ccc(C(=O)N[C@H]3CC[C@H](N)CC3)cc12 [compound 211, 4-amino-N-((1r,4r)-4-aminocyclohexyl)quinoline-6-carboxamide]
15.2 µM | CC(NC(=O)c1ccc2nccc(N)c2c1)C1CCN(C(=O)[C@H](C)N)CC1 (stereo partly drawn) [compound 212, N-(1-(1-(L-alanyl)piperidin-4-yl)ethyl)-4-aminoquinoline-6-carboxamide]
17.9 µM | O=C1Cc2cc(C(=O)NC[C@@H]3CCNC3)ccc2N1 [compound 213, (R)-2-oxo-N-(pyrrolidin-3-ylmethyl)indoline-5-carboxamide]
1.25 µM | CN(C(=O)CN)C1CCC(NC(=O)c2ccc3c(c2)CC(=O)N3)CC1 (stereo not shown) [compound 214, N-(4-(2-amino-N-methylacetamido)cyclohexyl)-2-oxoindoline-5-carboxamide]
> 100 µM | Cc1cnc(C(=O)N[C@H]2CC[C@H](NC(=O)CCN)CC2)cn1 [compound 215, N-((1r,4r)-4-(3-aminopropanamido)cyclohexyl)-5-methylpyrazine-2-carboxamide]
> 100 µM | Cc1nn(C(C)C(=O)NC(C)C2CCN(C(=O)[C@H](C)N)CC2)c(C)c1Br (stereo partly drawn) [compound 216, N-(1-(1-(L-alanyl)piperidin-4-yl)ethyl)-2-(4-bromo-3,5-dimethyl-1H-pyrazol-1-yl)propanamide]
> 100 µM | Cc1c(C(=O)NC(C)C2CCN(C(=O)[C@H](C)N)CC2)nnn1-c1ccccc1 (stereo partly drawn) [compound 217, N-(1-(1-(L-alanyl)piperidin-4-yl)ethyl)-5-methyl-1-phenyl-1H-1,2,3-triazole-4-carboxamide]
77 µM | CC1=NN(c2ccc(C(=O)NC(C)C3CCN(C(=O)[C@H](C)N)CC3)cc2)C(=O)C1 (stereo partly drawn) [compound 218, N-(1-(1-(L-alanyl)piperidin-4-yl)ethyl)-4-(3-methyl-5-oxo-4,5-dihydro-1H-pyrazol-1-yl)benzamide]

IC50 | Compound
> 100 µM | CC(NC(=O)c1ccc2cnn(C)c2c1)C1CCN(C(=O)[C@H](C)N)CC1 (stereo partly drawn) [compound 219, N-(1-(1-(L-alanyl)piperidin-4-yl)ethyl)-1-methyl-1H-indazole-6-carboxamide]
> 100 µM | COc1ccc2cc(C(=O)NC(C)C3CCN(C(=O)[C@H](C)N)CC3)ccc2c1 (stereo partly drawn) [compound 220, N-(1-(1-(L-alanyl)piperidin-4-yl)ethyl)-6-methoxy-2-naphthamide]
> 100 µM | COc1cc(C(=O)NC(C)C2CCN(C(=O)[C@H](C)N)CC2)c2ccccc2n1 (stereo partly drawn) [compound 221, N-(1-(1-(L-alanyl)piperidin-4-yl)ethyl)-2-methoxyquinoline-4-carboxamide]
> 100 µM | COc1cc(C(=O)N[C@H]2CC[C@H](NC(=O)CCN)CC2)c2ccccc2n1 [compound 222, N-((1r,4r)-4-(3-aminopropanamido)cyclohexyl)-2-methoxyquinoline-4-carboxamide]
> 100 µM | COc1cc(C(=O)N[C@H]2CC[C@H](N)CC2)c2ccccc2n1 [compound 223, N-((1r,4r)-4-aminocyclohexyl)-2-methoxyquinoline-4-carboxamide]
> 100 µM | CC(NC(=O)c1cc(=O)c2ccccc2o1)C1CCN(C(=O)[C@H](C)N)CC1 (stereo partly drawn) [compound 224, N-(1-(1-(L-alanyl)piperidin-4-yl)ethyl)-4-oxo-4H-chromene-2-carboxamide]
> 100 µM | CC(NC(=O)c1cc(O)c2ccccc2n1)C1CCN(C(=O)[C@H](C)N)CC1 (stereo partly drawn) [compound 225, N-(1-(1-(L-alanyl)piperidin-4-yl)ethyl)-4-hydroxyquinoline-2-carboxamide]
> 100 µM | CC(NC(=O)c1ccc(-n2cnnc2)cc1)C1CCN(C(=O)[C@H](C)N)CC1 (stereo partly drawn) [compound 226, N-(1-(1-(L-alanyl)piperidin-4-yl)ethyl)-4-(4H-1,2,4-triazol-4-yl)benzamide]
29.2 µM | CC(NC(=O)c1ccc(N2CCCC2)cc1)C1CCN(C(=O)[C@H](C)N)CC1 (stereo partly drawn) [compound 227, N-(1-(1-(L-alanyl)piperidin-4-yl)ethyl)-4-(pyrrolidin-1-yl)benzamide]
> 100 µM | CC(NC(=O)c1ccc2ncsc2c1)C1CCN(C(=O)[C@H](C)N)CC1 (stereo partly drawn) [compound 228, N-(1-(1-(L-alanyl)piperidin-4-yl)ethyl)benzo[d]thiazole-6-carboxamide]
77.9 µM | CC(NC(=O)c1cc2cc(Cl)ccc2[nH]1)C1CCN(C(=O)[C@H](C)N)CC1 (stereo partly drawn) [compound 229, N-(1-(1-(L-alanyl)piperidin-4-yl)ethyl)-5-chloro-1H-indole-2-carboxamide]
37.5 µM | NCCC(=O)N[C@H]1CC[C@H](NC(=O)c2cc3cc(Cl)ccc3[nH]2)CC1 [compound 230, N-((1r,4r)-4-(3-aminopropanamido)cyclohexyl)-5-chloro-1H-indole-2-carboxamide]
91.5 µM | N[C@H]1CC[C@H](NC(=O)c2cc3cc(Cl)ccc3[nH]2)CC1 [compound 231, N-((1r,4r)-4-aminocyclohexyl)-5-chloro-1H-indole-2-carboxamide]
> 100 µM | CC(NC(=O)c1cc2ccccc2[nH]1)C1CCN(C(=O)[C@H](C)N)CC1 (stereo partly drawn) [compound 232, N-(1-(1-(L-alanyl)piperidin-4-yl)ethyl)-1H-indole-2-carboxamide]
> 100 µM | NCCC(=O)N[C@H]1CC[C@H](NC(=O)c2cc3ccccc3[nH]2)CC1 [compound 233, N-((1r,4r)-4-(3-aminopropanamido)cyclohexyl)-1H-indole-2-carboxamide]
> 100 µM | N[C@H]1CC[C@H](NC(=O)c2cc3ccccc3[nH]2)CC1 [compound 234, N-((1r,4r)-4-aminocyclohexyl)-1H-indole-2-carboxamide]
13.4 µM | NCCC(=O)N[C@H]1CC[C@H](NC(=O)c2ccc3[nH]ccc3c2)CC1 [compound 235, N-((1r,4r)-4-(3-aminopropanamido)cyclohexyl)-1H-indole-5-carboxamide]
> 100 µM | CC(NC(=O)c1ccc2c(c1)no[n+]2[O-])C1CCN(C(=O)[C@H](C)N)CC1 (stereo partly drawn) [compound 236, 5-((1-(1-(L-alanyl)piperidin-4-yl)ethyl)carbamoyl)benzo[c][1,2,5]oxadiazole 1-oxide]
> 100 µM | CC(NC(=O)c1ccc2nonc2c1)C1CCN(C(=O)[C@H](C)N)CC1 (stereo partly drawn) [compound 237, N-(1-(1-(L-alanyl)piperidin-4-yl)ethyl)benzo[c][1,2,5]oxadiazole-5-carboxamide]
> 100 µM | CC(NC(=O)c1cnc2ccccc2n1)C1CCN(C(=O)[C@H](C)N)CC1 (stereo partly drawn) [compound 238, N-(1-(1-(L-alanyl)piperidin-4-yl)ethyl)quinoxaline-2-carboxamide]
> 100 µM | CC(NC(=O)c1cn2ccsc2n1)C1CCN(C(=O)[C@H](C)N)CC1 (stereo partly drawn) [compound 239, N-(1-(1-(L-alanyl)piperidin-4-yl)ethyl)imidazo[2,1-b]thiazole-6-carboxamide]

Compound | IC50
N[C@H]1CC[C@H](NC(=O)c2cc[n+]([O-])cc2)CC1 [compound 210, 4-(((1r,4r)-4-aminocyclohexyl)carbamoyl)pyridine 1-oxide] | > 100 µM
